In patent publication US10947271B2, “Antibacterial agents” (THE UNIVERSITY OF QUEENSLAND, priority 2014, dated 2021):

Key:
Format in all cases: cell-based
Details in all cases: 24 h incubation, visual reading
[1] = system: Enterococcus faecium MDR Van A ATCC 51559; assay: MIC assay, E. faecium MDR Van A ATCC 51559
Experimental: (§1) Antimicrobial activity of compounds was tested against a number of bacterial strains, including Staphylococcus aureus (MRSA ATCC 43300, GISA NRS17, VISA NRS1, MRSA clinical isolate, daptomycin resistant clinical isolate), Streptococcus pneumoniae (MDR ATCC 700677), Enterococcus faecalis (VanA clinical isolate) and Enterococcus faecium (MDR Van A ATCC 51559).
(§2) All compounds were prepared to 160 μg/ml solution in water from a stock solution of 1 mM concentration.
(§3) The compounds, along with standard antibiotics were serially diluted twofold across the wells of 96-well non-binding surface plates (NBS, Corning). Standards ranged from 64 μg/ml to 0.03 μg/ml and compounds from 8 μg/ml to 0.003 μg/ml with final volumes of 50 μL per well. Gram positive bacteria were cultured in Muller Hinton broth (MHB) (Bacto laboratories, Cat. no. 211443) at 37° C. overnight. A sample of each culture was then diluted 40-fold in fresh MHB broth and incubated at 37° C. for 2-3 hrs. The resultant mid-log phase cultures were diluted to the final concentration of 5×10e5 CFU/mL, then 50 μL was added to each well of the compound-containing 96-well plates. All the plates were covered and incubated at 37° C. for 24 h. MICs were the lowest concentration showing no visible growth.
(§4) MICs were determined visually at 24 hr incubation and the MIC was defined as the lowest concentration with which no growth was visible after incubation. Both MIC and MBC were determined by visual inspection only.

[2] = system: Streptococcus pneumoniae MDR ATCC 700677; assay: MIC assay, S. pneumoniae MDR ATCC 700677
Experimental: as §1, §2, §3, §4

[3] = system: Staphylococcus aureus MRSA ATCC 43300; assay: MIC assay, S. aureus MRSA ATCC 43300
Experimental: as §1, §2, §3, §4

| SMILES | Minimum Inhibitory Concentration (MIC) E. faecium ATCC51559 [1] | Minimum Inhibitory Concentration (MIC) S. pneumoniae ATCC 700677 [2] | Minimum Inhibitory Concentration (MIC) Staph. aureus ATCC43300 [3] |
| --- | --- | --- | --- |
| CNC(=O)C(CCCCNC(=O)C1NC(=O)C2NC(=O)C(NC(=O)C3NC(=O)C(CC(N)=O)NC(=O)C(NC(=O)C(CC(C)C)NC)C(O)c4ccc(c(Cl)c4)Oc4cc3cc(c4OC3OC(CO)C(O)C(O)C3OC3CC(C)(N)C(O)C(C)O3)Oc3ccc(cc3Cl)C2O)c2ccc(O)c(c2)-c2c(O)cc(O)cc21)NC(=O)C(CCCCN)NC(=O)C(CCCCNC(=O)CCCOc1ccccc1)NC(=O)CCCOc1ccccc1 (stereo not drawn) [MCC_000506] | x (x = >4) | xxx (xxx = 0.1-<1) | xxx (xxx = 0.1-<1) |
| CCCCCCCCC(=O)NC(CCCC[N+](C)(C)C)C(=O)NCCCNC(=O)C1NC(=O)C2NC(=O)C(NC(=O)C3NC(=O)C(CC(N)=O)NC(=O)C(NC(=O)C(CC(C)C)NC)C(O)c4ccc(c(Cl)c4)Oc4cc3cc(c4OC3OC(CO)C(O)C(O)C3OC3CC(C)(N)C(O)C(C)O3)Oc3ccc(cc3Cl)C2O)c2ccc(O)c(c2)-c2c(O)cc(O)cc21 (stereo not drawn) [MCC_007388] | x (x = >4) | xx (xx = 1-4) | xxx (xxx = 0.1-<1) |
| CCCCCCCCCCCCCCC(=O)NC(CCCCN)C(=O)NC(CCCCN)C(=O)NC(CCCCNC(=O)C1NC(=O)C2NC(=O)C(NC(=O)C3NC(=O)C(CC(N)=O)NC(=O)C(NC(=O)C(CC(C)C)NC)C(O)c4ccc(c(Cl)c4)Oc4cc3cc(c4OC3OC(CO)C(O)C(O)C3OC3CC(C)(N)C(O)C(C)O3)Oc3ccc(cc3Cl)C2O)c2ccc(O)c(c2)-c2c(O)cc(O)cc21)C(=O)NC (stereo not drawn) [MCC_000495] | xxx (xxx = 0.1-<1) | xxxxx (xxxxx = <0.01) | xxxx (xxxx = 0.01-<0.1) |
| CNC(=O)C(CCCCNC(=O)C1NC(=O)C2NC(=O)C(NC(=O)C3NC(=O)C(CC(N)=O)NC(=O)C(NC(=O)C(CC(C)C)NC)C(O)c4ccc(c(Cl)c4)Oc4cc3cc(c4OC3OC(CO)C(O)C(O)C3OC3CC(C)(N)C(O)C(C)O3)Oc3ccc(cc3Cl)C2O)c2ccc(O)c(c2)-c2c(O)cc(O)cc21)NC(=O)C(CCCCN)NC(=O)C(CCCCN)NC(=O)c1ccc(Oc2ccc(Cl)cc2)cc1 (stereo not drawn) [MCC_000516] | x (x = >4) | xxxxx (xxxxx = <0.01) | xxxxxx |
| CCCCCOc1ccc(C(=O)NC(CCCCN)C(=O)NC(CCCCN)C(=O)NCCCNC(=O)C2NC(=O)C3NC(=O)C(NC(=O)C4NC(=O)C(CC(N)=O)NC(=O)C(NC(=O)C(CC(C)C)NC)C(O)c5ccc(c(Cl)c5)Oc5cc4cc(c5OC4OC(CO)C(O)C(O)C4OC4CC(C)(N)C(O)C(C)O4)Oc4ccc(cc4Cl)C3O)c3ccc(O)c(c3)-c3c(O)cc(O)cc32)cc1 (stereo not drawn) [MCC_005361] | xx (xx = 1-4) | xxxx (xxxx = 0.01-<0.1) | xxxx (xxxx = 0.01-<0.1) |
| CNC(=O)C(CCCCNC(=O)C1NC(=O)C2NC(=O)C(NC(=O)C3NC(=O)C(CC(N)=O)NC(=O)C(NC(=O)C(CC(C)C)NC)C(O)c4ccc(c(Cl)c4)Oc4cc3cc(c4OC3OC(CO)C(O)C(O)C3OC3CC(C)(N)C(O)C(C)O3)Oc3ccc(cc3Cl)C2O)c2ccc(O)c(c2)-c2c(O)cc(O)cc21)NC(=O)C(CCCCN)NC(=O)C(CCCCNC(=O)CCCCCc1ccccc1)NC(=O)CCCCCc1ccccc1 (stereo not drawn) [MCC_000508] | xx (xx = 1-4) | xxxxx (xxxxx = <0.01) | xxxxx (xxxxx = <0.01) |
| CCCCCCCC(=O)N[C@@H](CCCCN)C(=O)N[C@@H](CCCCN)C(=O)NCCCNC(=O)[C@H]1NC(=O)[C@H]2NC(=O)[C@H](NC(=O)[C@@H]3NC(=O)[C@H](CC(N)=O)NC(=O)[C@H](NC(=O)[C@@H](CC(C)C)NC)[C@H](O)c4ccc(c(Cl)c4)Oc4cc3cc(c4O[C@@H]3O[C@H](CO)[C@@H](O)[C@H](O)[C@H]3O[C@H]3C[C@](C)(N)[C@H](O)[C@H](C)O3)Oc3ccc(cc3Cl)[C@H]2O)c2ccc(O)c(c2)-c2c(O)cc(O)cc21 [MCC_005196] | xx (xx = 1-4) | xxx (xxx = 0.1-<1) | xxx (xxx = 0.1-<1) |
| CCCCCCCCCC(=O)NC(CCCCN)C(=O)NC(CCCNC(=N)N)C(=O)NCCCNC(=O)C1NC(=O)C2NC(=O)C(NC(=O)C3NC(=O)C(CC(N)=O)NC(=O)C(NC(=O)C(CC(C)C)NC)C(O)c4ccc(c(Cl)c4)Oc4cc3cc(c4OC3OC(CO)C(O)C(O)C3OC3CC(C)(N)C(O)C(C)O3)Oc3ccc(cc3Cl)C2O)c2ccc(O)c(c2)-c2c(O)cc(O)cc21 (stereo not drawn) [MCC_005486] | xx (xx = 1-4) | xxxx (xxxx = 0.01-<0.1) | xxxxx (xxxxx = <0.01) |
| CCCCCOc1ccc(C(=O)NCCCCC(NC(=O)c2ccc(OCCCCC)cc2)C(=O)NC(CCCCN)C(=O)NC(CCCCNC(=O)C2NC(=O)C3NC(=O)C(NC(=O)C4NC(=O)C(CC(N)=O)NC(=O)C(NC(=O)C(CC(C)C)NC)C(O)c5ccc(c(Cl)c5)Oc5cc4cc(c5OC4OC(CO)C(O)C(O)C4OC4CC(C)(N)C(O)C(C)O4)Oc4ccc(cc4Cl)C3O)c3ccc(O)c(c3)-c3c(O)cc(O)cc32)C(=O)NC)cc1 (stereo not drawn) [MCC_000502] | xxx (xxx = 0.1-<1) | xxxxx (xxxxx = <0.01) | xxxxx (xxxxx = <0.01) |
| CNC(=O)[C@H](CCCCNC(=O)[C@H]1NC(=O)[C@H]2NC(=O)[C@H](NC(=O)[C@@H]3NC(=O)[C@H](CC(N)=O)NC(=O)[C@H](NC(=O)[C@@H](CC(C)C)NC)[C@H](O)c4ccc(c(Cl)c4)Oc4cc3cc(c4O[C@@H]3O[C@H](CO)[C@@H](O)[C@H](O)[C@H]3O[C@H]3C[C@](C)(N)[C@H](O)[C@H](C)O3)Oc3ccc(cc3Cl)[C@H]2O)c2ccc(O)c(c2)-c2c(O)cc(O)cc21)NC(=O)[C@H](CCCCN)NC(=O)[C@H](CCCCN)NS(=O)(=O)c1ccc(C)cc1 [MCC_000764] | x (x = >4) | xx (xx = 1-4) | xx (xx = 1-4) |
| CCCCCCCCCCCN1CCC(C(=O)N[C@@H](CCCCN)C(=O)N[C@@H](CCCCN)C(=O)N[C@@H](CCCCNC(=O)[C@H]2NC(=O)[C@H]3NC(=O)[C@H](NC(=O)[C@@H]4NC(=O)[C@H](CC(N)=O)NC(=O)[C@H](NC(=O)[C@@H](CC(C)C)NC)[C@H](O)c5ccc(c(Cl)c5)Oc5cc4cc(c5O[C@@H]4O[C@H](CO)[C@@H](O)[C@H](O)[C@H]4O[C@H]4C[C@](C)(N)[C@H](O)[C@H](C)O4)Oc4ccc(cc4Cl)[C@H]3O)c3ccc(O)c(c3)-c3c(O)cc(O)cc32)C(N)=O)CC1 [MCC_004818] | xxx (xxx = 0.1-<1) | xxxx (xxxx = 0.01-<0.1) | xxxx (xxxx = 0.01-<0.1) |
